PubChem BioAssay (NCI)
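Following 48 hours of exposure in 96-well plates, responses at five concentrations were used to interpolate endpoints linearly. At the GI50, growth is halved. TGI is the concentration that stops growth completely.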

What was measured:
Test in all cases: DTP human tumour cell line panel, 48 h; in the data active = GI50 below about 0.43 µM; inactive = the rest
786-0 renal = system: 786-0 renal
A498 renal = system: A498 renal
A549 NSCLC = system: A549 NSCLC
ACHN renal = system: ACHN renal
BT-549 breast = system: BT-549 breast
CAKI-1 renal = system: CAKI-1 renal
COLO 205 colon = system: COLO 205 colon
DU-145 prostate = system: DU-145 prostate
EKVX NSCLC = system: EKVX NSCLC
HCC-2998 colon = system: HCC-2998 colon
HCT-116 colon = system: HCT-116 colon
HCT-15 colon = system: HCT-15 colon
HOP-62 NSCLC = system: HOP-62 NSCLC
HOP-92 NSCLC = system: HOP-92 NSCLC
HS 578T breast = system: HS 578T breast
HT29 colon = system: HT29 colon
KM12 colon = system: KM12 colon
LOX IMVI melanoma = system: LOX IMVI melanoma
M14 melanoma = system: M14 melanoma
MALME-3M melanoma = system: MALME-3M melanoma
MCF7 breast = system: MCF7 breast
MDA-MB-231 breast = system: MDA-MB-231 breast
MDA-MB-435 = system: MDA-MB-435
NCI-H460 lung = system: NCI-H460 lung
NCI-H522 lung = system: NCI-H522 lung
OVCAR-3 ovarian = system: OVCAR-3 ovarian
OVCAR-4 ovarian = system: OVCAR-4 ovarian
OVCAR-5 ovarian = system: OVCAR-5 ovarian
PC-3 prostate = system: PC-3 prostate
RXF 393 renal = system: RXF 393 renal
SF-268 CNS = system: SF-268 CNS
SF-295 CNS = system: SF-295 CNS
SF-539 CNS = system: SF-539 CNS
SK-MEL-2 melanoma = system: SK-MEL-2 melanoma
SK-MEL-28 melanoma = system: SK-MEL-28 melanoma
SK-MEL-5 melanoma = system: SK-MEL-5 melanoma
SK-OV-3 ovarian = system: SK-OV-3 ovarian
SNB-75 CNS = system: SNB-75 CNS
SR leukemia = system: SR leukemia
SW-620 colon = system: SW-620 colon
T-47D breast = system: T-47D breast
TK-10 renal = system: TK-10 renal
U251 CNS = system: U251 CNS
UACC-257 melanoma = system: UACC-257 melanoma
UACC-62 melanoma = system: UACC-62 melanoma
UO-31 renal = system: UO-31 renal
CCRF-CEM leukemia = system: CCRF-CEM leukemia
HL-60(TB) leukemia = system: HL-60(TB) leukemia
IGROV1 ovarian = system: IGROV1 ovarian
K-562 leukemia = system: K-562 leukemia
MOLT-4 leukemia = system: MOLT-4 leukemia
NCI-H226 lung = system: NCI-H226 lung
NCI-H23 lung = system: NCI-H23 lung
NCI/ADR-RES ovarian = system: NCI/ADR-RES ovarian
OVCAR-8 ovarian = system: OVCAR-8 ovarian
RPMI-8226 leukemia = system: RPMI-8226 leukemia
SN12C renal = system: SN12C renal
SNB-19 CNS = system: SNB-19 CNS

CCNCCNc1cc(-c2ccc(Cl)c(Cl)c2)c(C#N)c2nc3ccccc3n12
3.24 µM: TGI (M14 melanoma) | TGI (SF-295 CNS)
3.52 µM: TGI (UACC-257 melanoma)
3.56 µM: TGI (UACC-62 melanoma)
1920 nM: TGI (HCT-15 colon)
3.54 µM: TGI (SK-MEL-28 melanoma)
> 100 µM: TGI (SR leukemia)
3.07 µM: TGI (SK-MEL-2 melanoma)
inactive: GI50 (786-0 renal) 1660 nM | GI50 (A498 renal) 1380 nM | GI50 (A549 NSCLC) 1430 nM | GI50 (ACHN renal) 1.39 µM | GI50 (BT-549 breast) 1.54 µM | GI50 (CAKI-1 renal) 1560 nM | GI50 (DU-145 prostate) 1440 nM | GI50 (EKVX NSCLC) 1750 nM | GI50 (HCC-2998 colon) 1690 nM | GI50 (HCT-15 colon) 629 nM | GI50 (HOP-62 NSCLC) 1620 nM | GI50 (HOP-92 NSCLC) 1.67 µM | GI50 (HS 578T breast) 1900 nM | GI50 (KM12 colon) 1600 nM | GI50 (LOX IMVI melanoma) 1210 nM | GI50 (M14 melanoma) 1720 nM | GI50 (MALME-3M melanoma) 1.76 µM | GI50 (MCF7 breast) 1010 nM | GI50 (MDA-MB-231 breast) 1.21 µM | GI50 (MDA-MB-435) 1700 nM | GI50 (NCI-H460 lung) 485 nM | GI50 (NCI-H522 lung) 1320 nM | GI50 (OVCAR-4 ovarian) 1.23 µM | GI50 (OVCAR-5 ovarian) 1870 nM | GI50 (PC-3 prostate) 1660 nM | GI50 (RXF 393 renal) 1500 nM | GI50 (SF-268 CNS) 1.71 µM | GI50 (SF-295 CNS) 1810 nM | GI50 (SK-MEL-2 melanoma) 1.58 µM | GI50 (SK-MEL-28 melanoma) 1.9 µM | GI50 (SK-MEL-5 melanoma) 1.71 µM | GI50 (SK-OV-3 ovarian) 1.79 µM | GI50 (SNB-75 CNS) 1460 nM | GI50 (SW-620 colon) 578 nM | GI50 (T-47D breast) 1430 nM | GI50 (TK-10 renal) 1.69 µM | GI50 (U251 CNS) 757 nM | GI50 (UACC-257 melanoma) 1.89 µM | GI50 (UACC-62 melanoma) 1.82 µM | GI50 (UO-31 renal) 1.6 µM
2.71 µM: TGI (MDA-MB-231 breast)
2.8 µM: TGI (NCI-H522 lung)
0.58 µM: TGI (SF-539 CNS)
3.23 µM: TGI (SK-OV-3 ovarian)
3.12 µM: TGI (SK-MEL-5 melanoma) | TGI (UO-31 renal)
1080 nM: TGI (HCT-116 colon)
4.43 µM: TGI (HS 578T breast)
1.42 µM: TGI (HT29 colon)
2530 nM: TGI (OVCAR-4 ovarian)
3.2 µM: TGI (T-47D breast)
3.41 µM: TGI (MALME-3M melanoma)
1.63 µM: TGI (COLO 205 colon)
3.18 µM: TGI (786-0 renal) | TGI (HOP-62 NSCLC)
2870 nM: TGI (ACHN renal)
3.19 µM: TGI (PC-3 prostate)
2940 nM: TGI (RXF 393 renal)
1.91 µM: TGI (NCI-H460 lung)
3.55 µM: TGI (OVCAR-5 ovarian)
2.53 µM: TGI (LOX IMVI melanoma)
2.88 µM: TGI (A498 renal)
2760 nM: TGI (DU-145 prostate)
2460 nM: TGI (MCF7 breast)
3.33 µM: TGI (EKVX NSCLC) | TGI (SF-268 CNS)
3.15 µM: TGI (KM12 colon)
3140 nM: TGI (MDA-MB-435)
3.21 µM: TGI (HCC-2998 colon)
2.15 µM: TGI (U251 CNS)
3.28 µM: TGI (HOP-92 NSCLC)
2900 nM: TGI (BT-549 breast) | TGI (CAKI-1 renal)
3.11 µM: TGI (TK-10 renal)
2070 nM: TGI (SW-620 colon)
580 nM: TGI (OVCAR-3 ovarian)
2.96 µM: TGI (SNB-75 CNS)
active: GI50 (COLO 205 colon) 421 nM | GI50 (HCT-116 colon) 278 nM | GI50 (HT29 colon) 369 nM | GI50 (OVCAR-3 ovarian) 248 nM | GI50 (SF-539 CNS) 224 nM | GI50 (SR leukemia) 287 nM
3.01 µM: TGI (A549 NSCLC)

CCNC(=O)N1CCc2c(Cl)c3c(c(OC)c2[C@@H]1[C@H]1OCc2c1ccc(OC)c2OC)OCCO3
10.9 µM: TGI (COLO 205 colon)
> 100000 nM: TGI (ACHN renal) | TGI (BT-549 breast) | TGI (CAKI-1 renal) | TGI (DU-145 prostate) | TGI (HCT-116 colon) | TGI (HCT-15 colon) | TGI (MCF7 breast) | TGI (OVCAR-4 ovarian) | TGI (SW-620 colon)
42.3 µM: TGI (MDA-MB-231 breast)
27.2 µM: TGI (LOX IMVI melanoma)
25 µM: TGI (HT29 colon)
2830 nM: TGI (MDA-MB-435)
> 100 µM: TGI (786-0 renal) | TGI (A549 NSCLC) | TGI (CCRF-CEM leukemia) | TGI (EKVX NSCLC) | TGI (HCC-2998 colon) | TGI (HOP-62 NSCLC) | TGI (IGROV1 ovarian) | TGI (K-562 leukemia) | TGI (MALME-3M melanoma) | TGI (MOLT-4 leukemia) | TGI (NCI-H226 lung) | TGI (NCI-H23 lung) | TGI (NCI/ADR-RES ovarian) | TGI (OVCAR-5 ovarian) | TGI (OVCAR-8 ovarian) | TGI (RPMI-8226 leukemia) | TGI (SF-268 CNS) | TGI (SK-MEL-2 melanoma) | TGI (SK-MEL-28 melanoma) | TGI (SK-OV-3 ovarian) | TGI (SN12C renal) | TGI (SNB-19 CNS) | TGI (SR leukemia) | TGI (T-47D breast) | TGI (TK-10 renal) | TGI (UACC-257 melanoma) | TGI (UACC-62 melanoma) | TGI (UO-31 renal)
13.9 µM: TGI (NCI-H460 lung)
7.07 µM: TGI (SNB-75 CNS)
16.5 µM: TGI (KM12 colon)
37.5 µM: TGI (U251 CNS)
6.66 µM: TGI (NCI-H522 lung)
5370 nM: TGI (OVCAR-3 ovarian)
6.06 µM: TGI (SF-539 CNS)
6.43 µM: TGI (HL-60(TB) leukemia)
90 µM: TGI (HOP-92 NSCLC)
7.91 µM: TGI (A498 renal)
inactive: GI50 (786-0 renal) 4240 nM | GI50 (A498 renal) 2600 nM | GI50 (A549 NSCLC) 4070 nM | GI50 (ACHN renal) 6.5 µM | GI50 (BT-549 breast) 6.84 µM | GI50 (CAKI-1 renal) 4200 nM | GI50 (CCRF-CEM leukemia) 3.82 µM | GI50 (COLO 205 colon) 3260 nM | GI50 (DU-145 prostate) 4200 nM | GI50 (EKVX NSCLC) 4180 nM | GI50 (HCC-2998 colon) 4190 nM | GI50 (HCT-116 colon) 3460 nM | GI50 (HCT-15 colon) 2720 nM | GI50 (HL-60(TB) leukemia) 2490 nM | GI50 (HOP-62 NSCLC) 3690 nM | GI50 (HOP-92 NSCLC) 11.7 µM | GI50 (HS 578T breast) 2570 nM | GI50 (HT29 colon) 3380 nM | GI50 (IGROV1 ovarian) 3.6 µM | GI50 (K-562 leukemia) 3.48 µM | GI50 (KM12 colon) 3070 nM | GI50 (LOX IMVI melanoma) 4640 nM | GI50 (M14 melanoma) 2120 nM | GI50 (MALME-3M melanoma) 6.27 µM | GI50 (MCF7 breast) 2720 nM | GI50 (MDA-MB-231 breast) 4.95 µM | GI50 (MDA-MB-435) 1160 nM | GI50 (MOLT-4 leukemia) 4.95 µM | GI50 (NCI-H226 lung) 4.44 µM | GI50 (NCI-H23 lung) 4.59 µM | GI50 (NCI-H460 lung) 3470 nM | GI50 (NCI-H522 lung) 1870 nM | GI50 (NCI/ADR-RES ovarian) 3.28 µM | GI50 (OVCAR-3 ovarian) 2310 nM | GI50 (OVCAR-4 ovarian) 40.6 µM | GI50 (OVCAR-5 ovarian) 3930 nM | GI50 (OVCAR-8 ovarian) 4.17 µM | GI50 (RPMI-8226 leukemia) 4.41 µM | GI50 (SF-268 CNS) 6.02 µM | GI50 (SF-295 CNS) 1860 nM | GI50 (SF-539 CNS) 2350 nM | GI50 (SK-MEL-2 melanoma) 6.01 µM | GI50 (SK-MEL-28 melanoma) 16.5 µM | GI50 (SK-MEL-5 melanoma) 4.59 µM | GI50 (SK-OV-3 ovarian) 4.58 µM | GI50 (SN12C renal) 7.1 µM | GI50 (SNB-19 CNS) 4.36 µM | GI50 (SNB-75 CNS) 2200 nM | GI50 (SR leukemia) 4220 nM | GI50 (SW-620 colon) 3860 nM | GI50 (T-47D breast) 4260 nM | GI50 (TK-10 renal) 13.5 µM | GI50 (U251 CNS) 3750 nM | GI50 (UACC-257 melanoma) 9.63 µM | GI50 (UACC-62 melanoma) 5.2 µM | GI50 (UO-31 renal) 5.52 µM
6.51 µM: TGI (SF-295 CNS)
5.39 µM: TGI (M14 melanoma)
9.13 µM: TGI (HS 578T breast)
21.1 µM: TGI (SK-MEL-5 melanoma)
